Experimental findings from ChEMBL document CHEMBL1201862, “PubChem BioAssay data set” (2004) are described below.

As a reminder, the IC50 is the concentration at which inhibition is half-maximal. What is called EC50 is the concentration that produces a half-maximal response. The AC50 is the concentration giving half of the maximal activity seen.

SMILES strings stand for the structures. Calls of active or inactive are those of the source.

Test [1] concerns the target Fructose-bisphosphate aldolase (Mycobacterium tuberculosis, UniProt P9WQA3). Kind of test: Fluorescence-based biochemical high throughput dose response assay for inhibitors of the fructose-bisphosphate aldolase (FBA) of M. tuberculosis. It is filed as functional.
The target in test [2] is T1, Trace amine-associated receptor 1 (Homo sapiens, UniProt Q96RJ0).
T1 sequence (Q96RJ0 whole entry): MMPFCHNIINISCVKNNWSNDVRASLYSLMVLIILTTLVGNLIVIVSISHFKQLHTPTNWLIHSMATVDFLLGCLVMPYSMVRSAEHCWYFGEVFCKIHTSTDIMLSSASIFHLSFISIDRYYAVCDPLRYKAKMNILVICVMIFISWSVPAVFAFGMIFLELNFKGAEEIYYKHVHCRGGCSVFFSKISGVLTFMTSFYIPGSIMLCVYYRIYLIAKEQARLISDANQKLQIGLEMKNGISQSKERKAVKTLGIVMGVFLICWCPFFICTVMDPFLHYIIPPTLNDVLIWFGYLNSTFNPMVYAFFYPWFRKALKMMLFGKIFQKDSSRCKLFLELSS
As to the kind of experiment: Counterscreen for agonists of the human trace amine associated receptor 1 (hTAAR1): Fluorescence-based cell-based high throughput dose response assay to identify hTAAR1 agonist that also desensitize TAAR1 receptor response. It is filed as functional. (In general: Counterscreens check selectivity or assay interference.)

Test [3] in a line: cells. Type of test: functional, cell-based.
Test [4] in a line: cells. Type of test: functional, cell-based. This is another data set of the same source.
For test [5], the target named is T1, Trace amine-associated receptor 1. As to the kind of experiment: Fluorescence-based cell-based high throughput dose response assay to identify agonists of the human trace amine associated receptor 1 (TAAR1). Type of test: functional.
Test [6] in a line: Trypanosoma cruzi growth suppression in host cells – NIH3T3 host cells, beta-gal luminescence, confirmation (AID 2044).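 Further: intracellular parasites grown in NIH/3T3 mouse fibroblasts as host cells; luminescent beta-galactosidase reporter signal from transgenic T. cruzi replicating inside host cells; inhibitors lower the luminescence signal.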 It is filed as functional, cell-based.
Test [7] in a line: NIH3T3 cell viability loss – ATP luminescence, mouse fibroblasts, counter-screen, dose response (AID 2010).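 Further: cells exposed to compound for about 90 hours before reading.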 It is filed as functional, cell-based.
For test [8], the target named is Matrix metalloproteinase-14 (Homo sapiens, UniProt P50281). Kind of test: Dose Response confirmation of uHTS hits for a small molecule inhibitors of MT1-MMP activation in a fluorescence assay set 1. It is filed as functional.
Test [9] can be described thus: viability of PTEN-deleted HCT116 cells – cell-based, HCT116 PTEN knockout, dose response (AID 1047).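 Further: HCT116 colon tumor cells with PTEN knocked out; cells exposed to compound for 60 hours before readout; potency for loss of cell viability measured by luminescence.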 It is filed as functional.
The nature of test [10]: viability of HCT116 lacking mutant beta-catenin – cell-based, human colon tumor, dose response (AID 1045).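 Further: HCT116 colon tumor cells with beta catenin knocked out; cells exposed to compound for 60 hours.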 Type of test: functional.
A short description of test [11]: inhibition of ADAM10 peptide cleavage – biochemical, FRET peptide substrate, recombinant human ADAM10, selectivity assay for ADAM17 exosite inhibitor project, dose response (AID 743259).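 Further: ADAM10 enzyme cleaving a FRET peptide substrate.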
Test [12] deals with Disintegrin and metalloproteinase domain-containing protein 17 (Homo sapiens, UniProt P78536). Kind of test: exosite inhibitors of ADAM17, dose response, biochemical (AID 743260).
In test [13] the target is Albumin (Bos taurus, UniProt P02769). As to the kind of experiment: Counterscreen for inhibitors of T-cell receptor (TCR)-CD3 interaction: Fluorescence-based biochemical high throughput dose response assay to identify inhibitors of T-cell receptor (TCR)-CD3 interaction using a TAMRA-labeled BSA probe. It is filed as functional.
Test [14] can be described thus: viability loss in CEM21 cells – cell-based, CellTiter-Glo luminescence, cherry-picked, cytotoxicity control for viral fusion inhibitor project, dose response (AID 652042).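 Further: potency for signal decrease meaning cytotoxicity.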 It is filed as functional. (ATP-based viability assays read luminescence as a measure of living cells.)
The nature of test [15]: off-target signal loss in HeLa-CEM21 co-culture – HeLa F-luc CTL cells, cherry-picked, counter-screen for HIV-1 Env fusion inhibitor project, dose response (AID 652040).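 Further: potency for signal decrease marking cytotoxic or nonspecific inhibition.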 It is filed as functional, cell-based.
The nature of test [16]: HIV-1 AD8 envelope cell-cell fusion blockers – cherry-pick, dose response (AID 652062).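 Further: luciferase signal from cell-cell fusion driven by HIV-1 clade B AD8 Env; potency is for inhibitors of fusion seen as a drop in luminescence.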 It is filed as functional, cell-based.
Test [17] in a line: blockers of HIV-1 envelope-mediated cell-cell fusion – cherry-pick, dose response (AID 652057). It is filed as functional, cell-based.
Test [18] concerns the target T2, Leucine aminopeptidase (Plasmodium falciparum 3D7, UniProt Q8IL11).
T2 sequence (Q8IL11 whole entry): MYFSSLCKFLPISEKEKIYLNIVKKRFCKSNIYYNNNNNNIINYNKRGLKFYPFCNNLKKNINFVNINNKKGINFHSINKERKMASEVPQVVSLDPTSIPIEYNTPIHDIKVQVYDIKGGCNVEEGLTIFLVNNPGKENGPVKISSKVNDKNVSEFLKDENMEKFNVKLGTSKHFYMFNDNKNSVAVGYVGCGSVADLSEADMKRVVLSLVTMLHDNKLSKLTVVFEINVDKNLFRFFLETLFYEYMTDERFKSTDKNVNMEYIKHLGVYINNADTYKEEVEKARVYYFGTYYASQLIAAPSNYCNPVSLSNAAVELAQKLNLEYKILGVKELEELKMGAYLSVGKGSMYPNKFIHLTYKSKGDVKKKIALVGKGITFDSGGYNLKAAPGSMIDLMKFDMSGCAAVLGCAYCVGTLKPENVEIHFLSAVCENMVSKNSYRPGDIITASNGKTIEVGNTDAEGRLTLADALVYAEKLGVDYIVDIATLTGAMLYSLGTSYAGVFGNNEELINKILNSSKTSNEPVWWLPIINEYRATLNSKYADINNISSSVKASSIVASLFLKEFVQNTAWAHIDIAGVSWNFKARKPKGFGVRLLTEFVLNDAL
As to the kind of experiment: P. falciparum M17LAP inhibitors, primary screen, biochemical, fluorogenic H-Leu-NHMec substrate, 1536-well (AID 1619). It is filed as functional.

Test [19] can be described thus: HGIII-sPLA2 enzyme inhibition potency – biochemical, QFRET, IC50, dose response (AID 743457).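 Further: green fluorescence rise as the enzyme cleaves BODIPY PC-A2 in liposomes.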
A short description of test [20]: blockers of HIV-1 ZM109 envelope-driven cell-cell fusion – HeLa effector, CEM target cells, luciferase, cherry-pick, dose response (AID 652058).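 Further: luciferase signal from HIV-1 Env mediated cell-cell fusion of effector and target cells.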 It is filed as functional, cell-based.
The test system of test [21] is INS1. As to the kind of experiment: INS-1E survival protection against cytokine death – cell-based, luminescence, retest, dose response (AID 449756).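 Further: cell death triggered by IL-1 beta plus TNF-alpha plus IFN-gamma mixture; protective hits raise ATP signal compared with cytokine alone wells.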 Type of test: functional. The following applies: Rattus norvegicus.
The target of test [22] is Melanocortin receptor 4 (Homo sapiens, UniProt P32245). Type of test: functional, cell-based.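 Further: Cell-based assay with luminescence read-out, confirmatory dose-response testing for agonist activity of biased ligands at MC4R; human U2OS cells with tagged receptor and beta-arrestin; potency of agonists that increase receptor coupling to beta-arrestin.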
The nature of test [23]: reduction of Shn3 3'UTR-driven luciferase in osteoblasts – cell-based, Clone20 osteoblasts, firefly luciferase, cherry-picked, dose response (AID 624132).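 Further: firefly luciferase luminescence from reporter carrying the Shn3 3'UTR in osteoblasts.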 It is filed as functional.
Test [24] can be described thus: activation of miR-122 Renilla sensor silencing – cell-based, Huh7 psiCHECK-miR122, Renilla luciferase, cherry-picked, dose response (AID 651956).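 Further: huh7 hepatoma cells stably carrying a psiCHECK-2 miR-122 sensor plasmid; renilla luciferase signal reporting endogenous miR-122 activity after 48 h compound exposure.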 It is filed as functional.
The nature of test [25]: general mammalian cell viability loss – activator set, cherry-pick, cytotoxicity control for miR-122 modulator project, dose response (AID 720690).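 Further: HEK293T human cells scored for general mammalian cytotoxicity.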 Type of test: functional, cell-based.
A short description of test [26]: general mammalian cell viability loss – inhibitor set, cherry-pick, set 2, cytotoxicity control for miR-122 modulator project, dose response (AID 720697). Type of test: functional, cell-based.
Test [27] is described as follows: T. cruzi growth inhibition in host cells, dose response, cell-based, plate reader, dry powder, set 2 (AID 652275). Type of test: functional.
In test [28] the target is T3, Fatty acid synthase (Homo sapiens, UniProt P49327). Kind of test: inhibition of human FAS-TE enzyme activity – biochemical, kinetic fluorescence intensity, dose response (AID 624326).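 Further: rate of fluorescence rise from hydrolysis of a fluorogenic O-methyl fluorescein ester substrate.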 Type of test: functional.
Test [29] addresses T3, Fatty acid synthase. As to the kind of experiment: inhibition of human FAS-TE enzyme activity – biochemical, endpoint fluorescence intensity, uHTS hits, dose response (AID 624327).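 Further: fluorescence from hydrolysis of an O-methyl fluorescein acyl ester substrate by the enzyme.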 It is filed as functional.

T3 sequence (P49327 whole entry): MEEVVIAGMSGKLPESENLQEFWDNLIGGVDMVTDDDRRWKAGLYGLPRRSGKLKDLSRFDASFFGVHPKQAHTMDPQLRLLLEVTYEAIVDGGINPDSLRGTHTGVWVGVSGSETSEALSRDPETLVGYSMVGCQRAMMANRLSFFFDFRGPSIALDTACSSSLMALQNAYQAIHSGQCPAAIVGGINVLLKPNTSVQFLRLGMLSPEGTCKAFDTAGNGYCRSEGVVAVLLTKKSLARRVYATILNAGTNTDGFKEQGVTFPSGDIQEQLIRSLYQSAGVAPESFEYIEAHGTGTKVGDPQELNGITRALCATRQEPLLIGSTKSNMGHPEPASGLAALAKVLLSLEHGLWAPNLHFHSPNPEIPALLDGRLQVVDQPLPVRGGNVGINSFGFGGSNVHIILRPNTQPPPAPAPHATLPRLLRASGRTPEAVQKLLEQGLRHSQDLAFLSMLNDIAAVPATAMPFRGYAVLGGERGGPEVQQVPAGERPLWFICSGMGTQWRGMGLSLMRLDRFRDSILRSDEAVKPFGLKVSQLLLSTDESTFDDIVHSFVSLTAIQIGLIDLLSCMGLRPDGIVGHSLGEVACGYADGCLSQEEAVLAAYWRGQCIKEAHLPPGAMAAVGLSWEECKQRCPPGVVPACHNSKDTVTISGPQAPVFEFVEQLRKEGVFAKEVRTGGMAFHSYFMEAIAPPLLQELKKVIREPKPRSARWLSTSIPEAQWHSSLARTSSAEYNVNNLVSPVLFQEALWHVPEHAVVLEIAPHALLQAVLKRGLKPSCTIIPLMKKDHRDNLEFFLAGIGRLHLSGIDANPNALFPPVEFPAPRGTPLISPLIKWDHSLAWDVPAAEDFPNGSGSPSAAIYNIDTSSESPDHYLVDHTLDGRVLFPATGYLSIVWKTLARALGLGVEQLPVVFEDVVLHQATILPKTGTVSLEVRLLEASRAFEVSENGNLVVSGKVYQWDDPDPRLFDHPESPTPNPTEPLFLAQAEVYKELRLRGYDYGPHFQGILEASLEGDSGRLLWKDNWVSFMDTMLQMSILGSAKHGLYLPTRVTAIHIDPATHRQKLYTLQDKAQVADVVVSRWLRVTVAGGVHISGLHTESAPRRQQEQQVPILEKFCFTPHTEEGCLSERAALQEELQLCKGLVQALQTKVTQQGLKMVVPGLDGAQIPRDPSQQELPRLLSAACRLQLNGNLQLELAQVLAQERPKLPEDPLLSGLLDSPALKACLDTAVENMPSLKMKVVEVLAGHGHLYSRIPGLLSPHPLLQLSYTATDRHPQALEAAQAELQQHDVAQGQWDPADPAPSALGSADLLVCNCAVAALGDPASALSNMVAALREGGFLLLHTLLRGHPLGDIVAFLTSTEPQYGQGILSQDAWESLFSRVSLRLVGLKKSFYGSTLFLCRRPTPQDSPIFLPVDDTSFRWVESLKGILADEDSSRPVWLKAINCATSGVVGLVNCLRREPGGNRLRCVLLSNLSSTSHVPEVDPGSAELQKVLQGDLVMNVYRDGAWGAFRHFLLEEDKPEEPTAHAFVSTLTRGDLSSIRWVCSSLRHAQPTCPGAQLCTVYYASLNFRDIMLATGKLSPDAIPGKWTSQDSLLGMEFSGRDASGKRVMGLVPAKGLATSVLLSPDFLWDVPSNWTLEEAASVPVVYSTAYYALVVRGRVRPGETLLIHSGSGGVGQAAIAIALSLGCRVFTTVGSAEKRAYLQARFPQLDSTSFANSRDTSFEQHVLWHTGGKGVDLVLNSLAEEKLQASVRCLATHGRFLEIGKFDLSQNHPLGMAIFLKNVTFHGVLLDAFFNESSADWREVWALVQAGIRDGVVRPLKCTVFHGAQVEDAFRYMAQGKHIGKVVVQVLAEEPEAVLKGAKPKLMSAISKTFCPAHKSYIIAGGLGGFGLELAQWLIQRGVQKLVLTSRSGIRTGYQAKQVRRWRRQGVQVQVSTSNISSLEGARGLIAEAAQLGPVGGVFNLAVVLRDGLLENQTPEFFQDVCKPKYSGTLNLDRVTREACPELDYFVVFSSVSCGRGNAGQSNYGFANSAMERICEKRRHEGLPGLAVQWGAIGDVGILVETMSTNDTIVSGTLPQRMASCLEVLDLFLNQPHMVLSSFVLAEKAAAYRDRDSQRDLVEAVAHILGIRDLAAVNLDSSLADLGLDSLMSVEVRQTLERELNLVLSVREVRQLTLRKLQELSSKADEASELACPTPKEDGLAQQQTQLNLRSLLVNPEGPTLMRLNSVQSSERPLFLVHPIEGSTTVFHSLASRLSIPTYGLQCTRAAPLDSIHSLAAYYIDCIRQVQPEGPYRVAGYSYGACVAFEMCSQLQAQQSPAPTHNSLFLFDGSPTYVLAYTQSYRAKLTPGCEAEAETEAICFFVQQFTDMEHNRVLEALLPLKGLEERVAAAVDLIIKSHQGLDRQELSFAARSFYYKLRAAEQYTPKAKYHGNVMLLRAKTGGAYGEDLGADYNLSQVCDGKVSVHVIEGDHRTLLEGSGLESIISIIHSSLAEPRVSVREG
Albumin, sequence (P02769 whole entry, the tested form may be a part): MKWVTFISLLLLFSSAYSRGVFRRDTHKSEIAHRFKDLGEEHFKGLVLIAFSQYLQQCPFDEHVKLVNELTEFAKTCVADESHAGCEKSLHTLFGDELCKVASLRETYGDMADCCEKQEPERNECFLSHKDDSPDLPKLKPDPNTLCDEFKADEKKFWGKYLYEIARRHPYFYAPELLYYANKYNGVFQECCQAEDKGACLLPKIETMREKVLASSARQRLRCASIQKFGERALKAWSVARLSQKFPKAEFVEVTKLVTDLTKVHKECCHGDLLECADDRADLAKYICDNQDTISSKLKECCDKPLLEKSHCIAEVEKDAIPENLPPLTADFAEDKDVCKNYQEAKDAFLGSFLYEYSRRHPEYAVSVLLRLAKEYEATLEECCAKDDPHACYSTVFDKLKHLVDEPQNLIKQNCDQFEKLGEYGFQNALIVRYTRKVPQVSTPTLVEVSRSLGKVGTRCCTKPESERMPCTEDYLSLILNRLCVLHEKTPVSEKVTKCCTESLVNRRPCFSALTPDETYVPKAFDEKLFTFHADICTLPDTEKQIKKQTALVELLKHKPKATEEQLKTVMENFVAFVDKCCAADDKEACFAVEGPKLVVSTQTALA
Melanocortin receptor 4, sequence (P32245 whole entry): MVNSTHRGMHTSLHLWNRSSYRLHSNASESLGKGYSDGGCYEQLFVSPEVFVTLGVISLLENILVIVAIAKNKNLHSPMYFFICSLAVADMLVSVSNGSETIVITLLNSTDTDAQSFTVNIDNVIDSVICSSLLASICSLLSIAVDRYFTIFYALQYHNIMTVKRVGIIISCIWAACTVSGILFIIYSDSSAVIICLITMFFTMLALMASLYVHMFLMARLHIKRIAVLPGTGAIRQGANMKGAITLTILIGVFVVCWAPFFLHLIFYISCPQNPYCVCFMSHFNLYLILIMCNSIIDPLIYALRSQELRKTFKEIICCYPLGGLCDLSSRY
Fructose-bisphosphate aldolase, sequence (P9WQA3 whole entry): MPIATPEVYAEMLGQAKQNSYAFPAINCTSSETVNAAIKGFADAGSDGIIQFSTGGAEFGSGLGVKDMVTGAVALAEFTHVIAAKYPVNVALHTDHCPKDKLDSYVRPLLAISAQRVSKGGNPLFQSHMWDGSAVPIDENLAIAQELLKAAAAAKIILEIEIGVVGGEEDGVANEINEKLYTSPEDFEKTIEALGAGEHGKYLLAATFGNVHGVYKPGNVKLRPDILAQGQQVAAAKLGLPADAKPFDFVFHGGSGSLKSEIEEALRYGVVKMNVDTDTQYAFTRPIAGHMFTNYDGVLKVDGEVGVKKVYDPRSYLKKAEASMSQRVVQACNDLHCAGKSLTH
Disintegrin and metalloproteinase domain-containing protein 17, sequence (P78536 whole entry, the tested form may be a part): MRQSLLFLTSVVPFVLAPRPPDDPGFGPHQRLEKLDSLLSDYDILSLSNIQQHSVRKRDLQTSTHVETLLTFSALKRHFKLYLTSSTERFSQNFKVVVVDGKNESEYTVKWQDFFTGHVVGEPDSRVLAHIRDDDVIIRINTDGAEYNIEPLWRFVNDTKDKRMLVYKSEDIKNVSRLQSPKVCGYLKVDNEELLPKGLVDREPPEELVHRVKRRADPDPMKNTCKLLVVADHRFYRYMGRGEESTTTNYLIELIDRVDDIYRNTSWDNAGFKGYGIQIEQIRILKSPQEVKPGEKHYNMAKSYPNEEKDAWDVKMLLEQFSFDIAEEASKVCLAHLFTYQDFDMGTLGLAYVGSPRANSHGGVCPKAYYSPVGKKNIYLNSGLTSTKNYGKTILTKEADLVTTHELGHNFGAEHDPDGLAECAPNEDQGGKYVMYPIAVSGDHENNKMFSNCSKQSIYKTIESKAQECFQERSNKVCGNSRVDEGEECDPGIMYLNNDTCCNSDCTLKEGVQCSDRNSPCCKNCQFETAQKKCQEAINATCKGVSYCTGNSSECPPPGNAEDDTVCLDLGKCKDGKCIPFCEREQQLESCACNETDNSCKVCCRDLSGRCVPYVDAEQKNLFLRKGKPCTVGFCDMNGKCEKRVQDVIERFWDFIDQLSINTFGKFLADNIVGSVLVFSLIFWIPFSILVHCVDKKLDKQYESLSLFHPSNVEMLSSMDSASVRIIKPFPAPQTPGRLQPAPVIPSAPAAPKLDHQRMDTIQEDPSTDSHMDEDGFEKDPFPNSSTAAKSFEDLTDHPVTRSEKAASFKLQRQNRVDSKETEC

Regarding `Cc1cc(C)c2oc(-c3cccc(N)c3)nc2c1`, in test [1], the IC50 was 0.518 µM (active).
With `Cc1ccccc1-n1c(=O)cc(N2CCc3ccccc3C2)[nH]c1=O`, the figures for the IC50 in test [2] and in test [4] were 7.07 µM (active) and > 29.9 µM (inactive), respectively. The EC50 is > 29.9 µM (inactive) in [3] and 2.59 µM (active) in test [5].
Consider `Nc1nc(-c2ccc(Cl)cc2)c(N=Nc2ccc(S(=O)(=O)N3CCOCC3)cc2)s1`, for which the EC50 in test [6] is 1.96 µM (active); in test [7], > 60 µM (inconclusive); in [9] it was 16.5 µM (active); in test [10] it was 17.4 µM (active). The IC50 in [8] was 27.7 µM (inactive).
`COc1ccccc1N(C)S(=O)(=O)c1ccc(C(=O)NNC(=O)c2ccccc2O)cc1`: the IC50 in [11] is > 69.5 µM (inactive); in test [12], > 69.5 µM (inactive); in test [13], > 94.1 µM (inactive).
On to `COc1ccc(COC(=O)C2=C(C)NC(=O)NC2c2ccc(OC)cc2)cc1` (centres undefined), for which the AC50 in [14] was 60.3 µM (active); in test [15] it was 47.3 µM (active); in test [16], 33.4 µM (active); in test [17], 21.6 µM (active).
As to `CC1=C(C)CC(C(=O)NCCc2ccccc2)C(C(=O)O)C1` (centres undefined), the IC50 was 7.2 µM (active) in [2], > 29.9 µM (inactive) in test [4] and 46 µM (active) in test [18]. The results for the EC50 in test [3] and in [5] were > 29.9 µM (inactive) and 1.4 µM (active), respectively.
Turning to `O=C1c2ccccc2C(=O)c2c(Nc3ccc(CCO)cc3)ccc(O)c21`, the IC50 in test [19] is > 122 µM (inactive).
On to `S=C(NCCCN1CCOCC1)N1CCN(c2nc(-c3ccc(Cl)cc3)cs2)CC1`, for which the AC50 in test [20] was 0.888 µM (active); in [21], 11.2 µM (active); in test [14], 19.9 µM (active); in test [15] it was 25.9 µM (active); in test [16], 7.13 µM (active); in test [17], 31 µM (active).
On to `CCN1CCN(Cc2ccc(NC(=O)c3cc(NC(=O)c4cc5cccc(OC)c5o4)cc(OC)c3)cc2C(F)(F)F)CC1`, for which, in [22], the EC50 is > 89.2 µM (inactive). The AC50 in test [23] was 9.77 µM (active); in test [24], 12.1 µM (active); in test [25], 8.76 µM (active); in [26], 4.28 µM (active).
With `C[C@H]1CN([C@@H](C)CO)C(=O)c2cccc(NC(=O)c3ccncc3)c2O[C@@H]1CN(C)Cc1ccccc1C(F)(F)F`, the AC50 in test [27] is 0.0342 µM (active).
`C[C@@H]1CN([C@@H](C)CO)S(=O)(=O)c2ccc(/C=C/c3ccccc3)cc2O[C@@H]1CN(C)C(=O)NC1CCCCC1`: in [26], the AC50 is 0.533 µM (active).
For `O=C(N/N=C/c1cc([N+](=O)[O-])cc([N+](=O)[O-])c1O)/C(=C\c1cccs1)NC(=O)c1ccccc1`, the results for the IC50 in test [28], in test [13] and in [29] were 4.89 µM (active), > 94.1 µM (inactive) and 6.3 µM (active), respectively.
